Where two headings read alike, the source gives them in different places.
Tests used:
[1] = system: HCV replicon cells; experiment: HCV replicon FRET / luciferase assay (96-well plates); format: cell-based; conditions: Hepatitis C virus, HCV replicon, read-out: EC50
How it was run: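 Trypsinized replicon cells were seeded with compound titrations and incubated at 37 °C for various times. Alamar blue was added to gauge toxicity. Plates were then rinsed and either lysed with FRET peptide reagent for kinetic fluorescence reading or switched to phenol red-free DMEM for luciferase measurement.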

[2] = biological target: T1, HCV NS5B RdRp genotype 1b (Hepatitis C virus genotype 1b, UniProt Q9WMX2); experiment: Standard HCV NS5B RdRp enzyme assay; format: biochemical; conditions: HCV NS5B RdRp genotype 1b, read-out: IC50
T1 construct: The protein was expressed with an 18 amino acid C-terminal truncation to enhance the solubility; made in house; host or cells: E. coli BL21(DE3), pET21a vector
How it was run: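 C-terminally truncated (18 aa) genotype 1b NS5B from E. coli, 28 nM, with 6 nM polyA template, 180 nM biotinylated oligo-dT12 primer and 3H-UTP (0.29 μM total UTP). Hepes pH 7.5 buffer with 2% DMSO; 60 min at 30° C. EDTA stop, SPA read-out; IC50 from seven concentrations by four-parameter fit.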

[3] = untitled table after Table 1b, values without asterisk

T1 sequence (Q9WMX2 2420-2992): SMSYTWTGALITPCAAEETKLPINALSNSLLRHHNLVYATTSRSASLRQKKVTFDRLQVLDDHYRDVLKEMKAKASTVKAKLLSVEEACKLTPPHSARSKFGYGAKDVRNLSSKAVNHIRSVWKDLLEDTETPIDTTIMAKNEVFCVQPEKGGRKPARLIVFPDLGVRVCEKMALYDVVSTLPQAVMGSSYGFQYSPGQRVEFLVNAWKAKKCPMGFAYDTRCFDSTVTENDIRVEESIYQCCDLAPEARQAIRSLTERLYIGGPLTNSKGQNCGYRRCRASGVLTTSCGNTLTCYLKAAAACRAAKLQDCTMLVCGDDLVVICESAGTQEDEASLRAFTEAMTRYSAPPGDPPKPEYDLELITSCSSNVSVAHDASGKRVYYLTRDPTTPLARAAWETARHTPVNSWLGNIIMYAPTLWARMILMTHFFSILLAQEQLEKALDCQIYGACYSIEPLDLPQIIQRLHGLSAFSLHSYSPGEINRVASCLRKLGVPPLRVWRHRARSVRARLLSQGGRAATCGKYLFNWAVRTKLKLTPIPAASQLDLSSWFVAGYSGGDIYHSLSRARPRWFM

| Compound | EC50 ([1]; Table 1a) | IC50 ([2]; Table 1a) | other results |
| --- | --- | --- | --- |
| CNC(=O)c1c(-c2ccc(F)cc2)oc2ccc(-c3ccc(-c4ccccc4Cl)c(C(=O)NCC(C)C)c3)cc12 | – | – | EC50 ([1]; Table 1b): < 250 nM; IC50 ([2]; Table 1b): < 250 nM |
| CNC(=O)c1c(-c2ccc(F)cc2)oc2ccc(-c3ccc(C(=O)N4CCCC4)cc3)cc12 | 1000 to 10000 nM | 1000 to 10000 nM | – |
| CNC(=O)c1c(-c2ccc(F)cc2)oc2ccc(-c3cccc(S(=O)(=O)NCCO)c3)cc12 | > 10000 nM | 1000 to 10000 nM | – |
| CNC(=O)c1c(-c2ccc(F)cc2)oc2ccc(-c3cccc(C(=O)NCc4ccccc4N)c3)cc12 | 1000 to 10000 nM | 1000 to 10000 nM | – |
| CNC(=O)c1c(-c2ccc(F)cc2)oc2ccc(-c3ccc(Cl)c(C(=O)O)c3)cc12 | > 10000 nM | 1000 to 10000 nM | – |
| CNC(=O)c1c(-c2ccc(F)cc2)oc2ccc(-c3cc(C(=O)NC(C)(C)c4ccccc4)ccc3OC)cc12 [drawing 608] | – | – | EC50 [1, 3]: 3.04 nM; IC50 ([2]; untitled table after Table 1b): 9.65 nM |
| CNC(=O)c1c(-c2ccc(F)cc2)oc2ccc(-c3cccc(C(=O)Nc4cccc(CC(=O)O)c4)c3)cc12 | > 10000 nM | < 250 nM | – |
| CNC(=O)c1c(-c2ccc(F)cc2)oc2ccc(-c3cc(C(=O)NC4(c5ccccc5)CC4)ccc3F)cc12 [drawing 609] | – | – | EC50 [1, 3]: 3.57 nM; IC50 ([2]; untitled table after Table 1b): 20 nM |
| CNC(=O)c1c(-c2ccc(F)cc2)oc2ccc(-c3cc(C(=O)NC4(c5ccccn5)CC4)c(OCC(N)=O)cc3C)cc12 | – | – | EC50 ([1]; 24 h, Table 1d (class symbols)): 1 to 250 nM; IC50 ([2]; Table 1d (class symbols)): < 20 nM |
| CNC(=O)c1c(-c2ccc(F)cc2)oc2ccc(-c3cc(C(=O)NCC(C)C)ccc3OCCc3c(C)n[nH]c3C)cc12 | – | – | EC50 ([1]; Table 1b): < 250 nM; IC50 ([2]; Table 1b): < 250 nM |
| CNC(=O)c1c(-c2ccc(F)cc2)oc2ccc(-c3cc(C(=O)NC4(c5noc(C)n5)CC4)ccc3C)cc12 | – | – | EC50 ([1]; Table 1b): < 250 nM; IC50 ([2]; Table 1b): < 20 nM |
| CNC(=O)c1c(-c2ccc(F)cc2)oc2ccc(-c3cccc(C(=O)NC4(c5ccccc5)CC4)c3)cc12 [drawing 610] | – | – | EC50 [1, 3]: 3.58 nM; IC50 ([2]; untitled table after Table 1b): 5.9 nM |
| CNC(=O)c1c(-c2ccc(F)cc2)oc2ccc(-c3ccc(C(=O)N(C)CCO)cc3)cc12 | > 10000 nM | 1000 to 10000 nM | – |
| CCOCCNC(=O)c1cccc(-c2ccc3oc(-c4ccc(F)cc4)c(C(=O)NC)c3c2)c1 | 250 to 1000 nM | < 250 nM | – |
| CNC(=O)c1c(-c2ccc(F)cc2)oc2ccc(-c3cccc(NC(C)=O)c3)cc12 | 1000 to 10000 nM | 1000 to 10000 nM | – |
| CNC(=O)c1c(-c2ccc(F)cc2)oc2ccc(-c3cc(C(=O)NC4(c5cnccn5)CC4)c(OC)cc3C)cc12 | – | – | EC50 ([1]; 24 h, Table 1d (class symbols)): 1 to 250 nM; IC50 ([2]; Table 1d (class symbols)): 1 to 250 nM |
| CNC(=O)c1c(-c2ccc(F)cc2)oc2ccc(-c3cccc(C(=O)NCc4ccc(C)cc4)c3)cc12 | < 250 nM | < 250 nM | – |
| CNC(=O)c1c(-c2ccc(F)cc2)oc2ccc(-c3cc(OC)ncc3F)cc12 | > 620 nM | > 10000 nM | – |
| CNC(=O)c1c(-c2ccc(F)cc2)oc2ccc(-c3cccc(C(=O)NC(C)(C)c4ccccc4)c3)c(N)c12 | < 250 nM | < 250 nM | – |
| CNC(=O)c1c(-c2ccc(F)cc2)oc2ccc(-c3cc(C(=O)NC4(c5ccccn5)CC4)ccc3OC(F)(F)F)cc12 | – | – | EC50 ([1]; Table 1b): < 250 nM; IC50 ([2]; Table 1b): 250 to 1000 nM |
| CNC(=O)c1c(-c2ccc(F)cc2)oc2ccc(-c3cccc(C(=O)Nc4ccccc4)c3)cc12 | < 250 nM | < 250 nM | – |
| CNC(=O)c1c(-c2ccc(F)cc2)oc2ccc(-c3ccc(C(=O)N4CCC[C@H]4CO)cc3)cc12 | > 10000 nM | > 10000 nM | – |
| CNC(=O)c1c(-c2ccc(F)cc2)oc2ccc(-c3cccc(C(=O)NCc4cccc(C)c4)c3)cc12 | < 250 nM | < 250 nM | – |
| CNC(=O)c1c(-c2ccc(F)cc2)oc2ccc(-c3cccc(C(=O)NC(C)(C)C(=O)NC)c3)cc12 | < 250 nM | < 250 nM | – |

| Compound | EC50 ([1]; Table 1a) | IC50 ([2]; Table 1a) | other results |
| --- | --- | --- | --- |
| CNC(=O)c1c(-c2ccc(F)cc2)oc2ccc(-c3cc(C(=O)NC(C)(C)C)ccc3C)cc12 | – | – | EC50 ([1]; Table 1b): < 250 nM; IC50 ([2]; Table 1b): < 250 nM |
| CNC(=O)c1c(-c2ccc(F)cc2)oc2ccc(-c3cc(C(=O)NC4(c5ccccc5)CC4)ccc3OC)cc12 [drawing 356] | – | – | EC50 ([1]; Table 1b): < 250 nM; IC50 ([2]; Table 1b): < 250 nM |
| CNC(=O)c1c(-c2ccc(F)cc2)oc2ccc(-c3cccc(C(=O)NC4CCCCCC4)c3)cc12 | < 250 nM | < 250 nM | – |
| CNC(=O)c1c(-c2ccc(F)cc2)oc2ccc(-c3cc(C(=O)O)cc([N+](=O)[O-])c3)cc12 | > 10000 nM | 250 to 1000 nM | – |
| CN1CN(C)c2c(-c3cccc(C(N)=O)c3)ccc3oc(-c4ccc(F)cc4)c(c23)C1=O [drawing 619] | – | – | EC50 [1, 3]: 13700 nM; IC50 ([2]; untitled table after Table 1b): > 12500 nM |
| CNC(=O)c1c(-c2ccc(F)cc2)oc2ccc(-c3cccc(C(=O)OC)c3)cc12 | > 3700 nM | > 10000 nM | – |
| CNC(=O)c1c(-c2ccc(F)cc2)oc2ccc(-c3cccc(C(=O)Nc4ccccc4OC)c3)cc12 | < 250 nM | 250 to 1000 nM | – |
| CNC(=O)c1c(-c2ccc(F)cc2)oc2ccc(-c3cc(C(=O)NC4(c5nnc(C(F)(F)F)[nH]5)CC4)ccc3C)cc12 | – | – | EC50 ([1]; Table 1b): < 250 nM; IC50 ([2]; Table 1b): < 250 nM |
| CNC(=O)c1c(-c2ccc(F)cc2)oc2ccc(-c3cc(C(=O)NC4(c5ccccn5)CC4)c(OCC4CC4)cc3C)cc12 | – | – | EC50 ([1]; 24 h, Table 1d (class symbols)): 1 to 250 nM; IC50 ([2]; Table 1d (class symbols)): 1 to 250 nM |
| CNC(=O)c1c(-c2ccc(F)cc2)oc2cc(N)c(-c3cccc(C(=O)NC4(c5ccccc5)CC4)c3)cc12 | < 250 nM | < 250 nM | – |
| CNC(=O)c1c(-c2ccc(F)cc2)oc2ccc(-c3cccc(C(=O)Nc4ccnn4C)c3)cc12 | 250 to 1000 nM | 250 to 1000 nM | – |
| CNC(=O)c1c(-c2ccc(F)cc2)oc2ccc(-c3cc(C(=O)NC4(c5ccccn5)CC4)ccc3C)cc12 [drawing 425] | – | – | EC50 ([1]; Table 1b): < 250 nM; IC50 ([2]; Table 1b): < 250 nM |
| CNC(=O)c1c(-c2ccc(F)cc2)oc2cc(N(CCO)S(C)(=O)=O)c(-c3cc(C(=O)NC4(c5ccccc5)CC4)ccc3F)cc12 | – | – | EC50 ([1]; Table 1b): < 250 nM; IC50 ([2]; Table 1b): < 250 nM |
| CNC(=O)c1c(-c2ccc(F)cc2)oc2ccc(-c3cc(C(=O)NC4(c5nnc(-c6ccccc6Cl)[nH]5)CC4)ccc3C)cc12 | – | – | EC50 ([1]; Table 1b): < 250 nM; IC50 ([2]; Table 1b): < 250 nM |
| CNC(=O)c1c(-c2ccc(F)cc2)oc2cc(N(CCO)S(C)(=O)=O)c(-c3cccc(C(=O)NC(C)(C)c4ccc(F)cc4)c3)cc12 | – | – | EC50 ([1]; Table 1b): < 250 nM; IC50 ([2]; Table 1b): < 250 nM |
| CCN(CC)C(=O)c1ccc(-c2ccc3oc(-c4ccc(F)cc4)c(C(=O)NC)c3c2)cc1 | > 10000 nM | 1000 to 10000 nM | – |
| CCNC(=O)C(C)(C)NC(=O)c1cccc(-c2ccc3oc(-c4ccc(F)cc4)c(C(=O)NC)c3c2)c1 | 250 to 1000 nM | 250 to 1000 nM | – |
| CNC(=O)c1c(-c2ccc(F)cc2)oc2ccc(-c3ccc(-c4cccnc4OC)c(C(=O)NCC(C)C)c3)cc12 | – | – | EC50 ([1]; Table 1b): < 250 nM; IC50 ([2]; Table 1b): < 250 nM |
| CNC(=O)c1c(-c2ccc(F)cc2)oc2ccc(-c3cc(OC(C)C)cc(C(=O)NCC(C)C)c3)cc12 | – | – | EC50 ([1]; Table 1b): > 10000 nM; IC50 ([2]; Table 1b): 1000 to 10000 nM |
| CNC(=O)c1c(-c2ccc(F)cc2)oc2ccc(-c3cc(C(=O)NCC(C)C)ccc3OCC(F)F)cc12 | – | – | EC50 ([1]; Table 1b): < 250 nM; IC50 ([2]; Table 1b): 250 to 1000 nM |
| CNC(=O)c1c(-c2ccc(F)cc2)oc2ccc(-c3cccc(C(=O)Nc4cccc(C)c4)c3)cc12 | 250 to 1000 nM | 250 to 1000 nM | – |
| CNC(=O)c1c(-c2ccc(F)cc2)oc2ccc(-c3cc(C(=O)NC4(c5ncccn5)CC4)cc(F)c3C)c(F)c12 [drawing 712] | – | – | EC50 ([1]; 24 h, second table titled Table 1d (numbers)): 2.4 nM; IC50 ([2]; second table titled Table 1d (numbers)): 8.1 nM |
| CNC(=O)c1c(-c2ccc(F)cc2)oc2ccc(-c3ccc(C(=O)O)c(Cl)c3)cc12 | > 10000 nM | 1000 to 10000 nM | – |
| CNC(=O)c1c(-c2ccc(F)cc2)oc2ccc(-c3ccc(C(=O)O)c(F)c3)cc12 | > 10000 nM | 1000 to 10000 nM | – |
